PMC5073322, “Novel Natural Product-like Caged Xanthones Bearing a Carbamate Moiety Exhibit Antitumor Potency and Anti-Angiogenesis Activity In vivo” (Scientific Reports, 2016)
In brackets after ≈: the same amount, converted by molar mass. Read-outs that look alike come from different tables or passages of the source.

Experiments:
[1] = test system: HCT116; experiment: MTT antiproliferative assay, HCT116
Description: (§2) The inhibition of tumour cell growth was measured by a modified tetrazolium (MTT) salt assay, as previously described[39]. Cells were cultured in a 96-well plate and treated with culture medium alone or different concentrations of the compounds. The cells were incubated for 72 h, and then, the MTT assay reagent was added. After a 4 h incubation, the formazan product was quantitated at 570 nm. The IC50 values (the concentrations that gave rise to 50% inhibition of cell viability) were calculated using GraphPad Prism 6 using a variable slope (four parameters).

[2] = Water solubility by HPLC; assay type: physicochemical; conditions: for solubility: thermodynamic from solid
Description: The physicochemical characteristics of compounds directly determine their potential drug-like properties. Assessing a compound’s physicochemical properties before performing in vivo evaluations can guide further studies and minimize the time and cost associated with drug discovery. Therefore, parallel to the in vivo study, these solubilities of these compounds in water were experimentally measured using high-performance liquid chromatography (HPLC). Based on the results of full wave scanning, 290 nm was chosen as the maximum absorption wavelength for HPLC detection.
(§1) A HPLC system with an ultraviolet (UV) detector was used to detect the solubility of the compounds. The optimal wavelength was 290 nm. Ethanol/water (85:15) was an efficient eluent at a flow rate of 0.5 mL/min. The compounds were stirred in deionized water overnight to maximize the retention of the compounds in solution. Then, the solutions were filtered and the supernatant was used as a fluid sample for HPLC detection. The permeability (Pe) of some of the compounds was tested with the help of a standard PAMPA (pION), as previously reported. PAMPA was performed on a PAMPA Explorer instrument (pION, Inc., Woburn, MA) with the PAMPA Explorer command software (Version 3.7.4.1). The compounds were diluted to 10 mM with the system solution buffer (pH 7.4). Then, 150 μL of the diluted compound solution was transferred to a UV plate, and the UV spectrum was collected and used as a reference. Then, paint the membrane with 5 μL of gastrointestinal tract (GIT) lipid. The acceptor chamber was filled with 200 μL of acceptor solution buffer, and the donor chamber was filled with 200 μL of diluted compound solution. The PAMPA sandwich was assembled and left at 25 °C for 4 h. The UV spectra (240–500 nm) from the donor and the acceptor were collected. The permeability coefficient was calculated with the PAMPA Explorer Command software (Version 3.7.4.1) based on the area under the curve (AUC) of the reference plate, the donor plate, and the acceptor plate. The permeability coefficient of the compound was tested for four times, and the data are shown as the average values. Ketoprofen (4.5×10^−6 cm/s) and propranolol (112.8×10^−6 cm/s) were used as the standards in this assay.

[3] = test system: HepG2; experiment: MTT antiproliferative assay, HepG2
Description: as §2

[4] = test system: MDA-MB-231; experiment: MTT antiproliferative assay, MDA-MB-231
Description: as §2

[5] = test system: A549/taxol; experiment: MTT antiproliferative assay, Taxol-resistant A549; assay type: cell-based; conditions: 72 h, Taxol-resistant A549
Description: as §2

[6] = test system: A549; experiment: MTT antiproliferative assay, A549
Description: as §2

[7] = test system: A549/cisplatin; experiment: MTT antiproliferative assay, cisplatin-resistant A549; assay type: cell-based
Description: as §2

[8] = Parallel artificial membrane permeability assay (PAMPA); assay type: in vitro ADME; conditions: PAMPA standards, 25 °C, 4 h
Description: Permeability is another important property that reflects the ability of molecules to diffuse through cell membranes. The permeability coefficients were determined using a standard parallel artificial membrane permeability assay (PAMPA) on a PAMPA Explorer instrument (Pion, Inc., MA, USA)[34].
as §1, with “The compounds were diluted to 10 mM with the system solution buffer (pH 7.4).” left out

[9] = Homo sapiens, HCT-116, 72 h, read-out: IC50 HCT116
[10] = deionized water, stirred overnight, HPLC 290 nm, read-out: S, water solubility
[11] = Homo sapiens, HepG2, 72 h, read-out: IC50 HepG2
[12] = Homo sapiens, MDA-MB-231, 72 h, read-out: IC50 MDA-MB-231
[13] = Homo sapiens, HCT-116, 72 h, read-out: IC50 HCT116, MTT, 72 h
[14] = A549/Taxol, read-out: IC50 A549/taxol, MTT, 72 h
[15] = Homo sapiens, A549, 72 h, read-out: IC50 A549, MTT, 72 h
[16] = Homo sapiens, A549, 72 h, read-out: IC50 A549/cisplatin, MTT, 72 h
[17] = water, deionized water, stirred overnight, HPLC 290 nm, read-out: S, water solubility
[18] = Homo sapiens, HepG2, 72 h, read-out: IC50 HepG2, MTT, 72 h
[19] = Homo sapiens, MDA-MB-231, 72 h, read-out: IC50 MDA-MB-231, MTT, 72 h
[20] = Homo sapiens, A549, 72 h, read-out: IC50 A549
[21] = Homo sapiens, MTT, 72 h, read-out: IC50 A549/cisplatin
[22] = read-out: IC50 A549/cisplatin, MTT, 72 h
[23] = deionized water, stirred overnight, HPLC 290 nm
[24] = read-out: IC50 HepG2, MTT, 72 h

Row | Structure (SMILES) | IC50 [1, 9] [nM] | solubility [2, 10] [µM] | IC50 [3, 11] [nM] | IC50 [4, 12] [nM] | IC50 ([5]; MTT, read-out: IC50 A549/taxol) [nM] | IC50 [6, 20] [nM] | IC50 [7, 21] [nM] | further results
1 | CC(C)=CCC12OC(C)(C)C3CC(C=C4C(=O)c5c(cccc5OS(C)(=O)=O)OC431)C2=O (stereo not drawn) [Compound 2] | 2120 ± 140 | 20 (≈ 9.17 µg/mL) | 1410 ± 60 | 2000 ± 70 |  |  |  | 
2 | CCOC(=O)COc1cccc2c1C(=O)C1=CC3CC4C(C)(C)OC(CC=C(C)C)(C3=O)C14O2 (stereo not drawn) [Compound 4] | 8130 ± 730 | 10 (≈ 4.67 µg/mL) | 12700 ± 970 | 5420 ± 570 |  |  |  | 
3 | CC(C)=CCC12OC(C)(C)C3CC(C=C4C(=O)c5c(OCC(=O)O)cccc5OC431)C2=O (stereo not drawn) [Compound 5] | > 10000 | 30 (≈ 13.2 µg/mL) | > 10000 | > 10000 |  |  |  | 
4 | CC(C)=CCC12OC(C)(C)C3CC(C=C4C(=O)c5c(OC(=O)N(C)C)cccc5OC431)C2=O (stereo not drawn) [Compound 8a] |  |  |  |  |  |  |  | IC50 [1, 13]: 2320 ± 210 nM; IC50 [5, 14]: 650 ± 80 nM; IC50 [6, 15]: 3090 ± 140 nM; IC50 [7, 16]: 1100 ± 100 nM; solubility [2, 17]: 60 µM (≈ 27.1 µg/mL); IC50 [3, 18]: 1730 ± 430 nM; IC50 [4, 19]: 170 ± 40 nM
5 | CCN(C)C(=O)Oc1cccc2c1C(=O)C1=CC3CC4C(C)(C)OC(CC=C(C)C)(C3=O)C14O2 (stereo not drawn) [Compound 8c] |  |  |  |  |  |  |  | IC50 [1, 13]: 2750 ± 140 nM; IC50 [5, 14]: 660 ± 160 nM; IC50 [6, 15]: 3050 ± 580 nM; IC50 [7, 16]: 1480 ± 140 nM; solubility [2, 17]: 30 µM (≈ 14 µg/mL); IC50 [3, 18]: 2560 ± 190 nM; IC50 [4, 19]: 250 ± 120 nM
6 | CC(C)=CCC12OC(C)(C)C3CC(C=C4C(=O)c5c(OC(=O)N6CCCC6)cccc5OC431)C2=O (stereo not drawn) [Compound 8e] | 1060 ± 90 | 40 (≈ 19.1 µg/mL) | 990 ± 10 | 4400 ± 1500 | 12400 ± 290 | 8630 ± 190 | 5680 ± 150 | 
7 | CC(C)=CCC12OC(C)(C)C3CC(C=C4C(=O)c5c(OC(=O)N6CCCCC6)cccc5OC431)C2=O (stereo not drawn) [Compound 8f] | 1020 ± 70 | 50 (≈ 24.6 µg/mL) | 950 ± 90 | 870 ± 160 | 1450 ± 180 | 2930 ± 20 | 2980 ± 170 | 
8 | CC(C)=CCC12OC(C)(C)C3CC(C=C4C(=O)c5c(OC(=O)N6CC=CC6)cccc5OC431)C2=O (stereo not drawn) [Compound 8h] | 3150 ± 220 | 20 (≈ 9.51 µg/mL) | 1750 ± 280 | 6800 ± 700 | 1100 ± 160 | 8450 ± 200 | 6700 ± 180 | 
9 | CC(C)=CCC12OC(C)(C)C3CC(C=C4C(=O)c5c(OC(=O)N(CCO)CCO)cccc5OC431)C2=O (stereo not drawn) [Compound 8j] | 4140 ± 50 | 60 (≈ 30.7 µg/mL) | 5210 ± 10 | 6200 ± 110 | 4250 ± 700 | 10240 ± 100 | 3780 ± 110 | 
10 | CC(C)=CCC12OC(C)(C)C3CC(C=C4C(=O)c5c(OC(=O)N(C(C)C)C(C)C)cccc5OC431)C2=O (stereo not drawn) [Compound 8k] | 4490 ± 770 | 30 (≈ 15.2 µg/mL) | 4760 ± 220 | 9100 ± 120 | 6720 ± 530 | 8960 ± 900 | 2000 ± 470 | 
11 | CC(C)=CCC12OC(C)(C)C3CC(C=C4C(=O)c5c(OC(=O)N6CCN(C)CC6)cccc5OC431)C2=O (stereo not drawn) [Compound 8m] |  |  |  |  |  |  |  | IC50 [1, 13]: 8150 ± 700 nM; IC50 ([5]; read-out: IC50 A549/taxol, MTT): 1100 ± 50 nM; IC50 [6, 15]: 9970 ± 2460 nM; IC50 [7, 22]: 380 ± 70 nM; S, water solubility [2, 23]: 640 µM; IC50 [3, 24]: 1360 ± 710 nM; IC50 [4, 19]: 760 ± 90 nM
12 | CC(C)=CCC12OC(C)(C)C3CC(C=C4C(=O)c5c(OC(=O)N6CCN(C)CC6)cccc5OC431)C2=O (stereo not drawn) [Compound 8o] |  |  |  |  |  |  |  | IC50 ([1]; read-out: IC50 HCT116, MTT, 72 h): 9820 ± 680 nM; IC50 ([5]; read-out: IC50 A549/taxol, MTT): 510 ± 50 nM; IC50 ([6]; read-out: IC50 A549, MTT, 72 h): 14900 ± 3600 nM; IC50 [7, 22]: 1140 ± 140 nM; S, water solubility [2, 23]: >40000 µM; IC50 [3, 24]: 2800 ± 210 nM; IC50 ([4]; read-out: IC50 MDA-MB-231, MTT, 72 h): 660 ± 70 nM
13 | COc1cccc2c1C(=O)c1c(O)c3c(c(O)c1C2=O)C[C@@](O)(C(=O)CO)C[C@@H]3O[C@H]1C[C@H](N)[C@H](O)[C@H](C)O1 [Doxorubicin, reference compound] | 400 ± 40 |  | 280 ± 10 | 490 ± 50 | 240 ± 20 | 170 ± 20 | 190 ± 20 | 
14 | CC(C)=CCC[C@]1(C)C=Cc2c(O)c3c(c(CC=C(C)C)c2O1)O[C@]12C(=C[C@@H]4C[C@H]1C(C)(C)O[C@@]2(C/C=C(/C)C(=O)O)C4=O)C3=O [GA, gambogic acid, reference compound] | 340 ± 80 |  | 2080 ± 70 | 1500 ± 50 | 290 ± 40 | 2020 ± 20 | 2500 ± 60 | solubility ([2]; water): < 5 µM
15 | CC(C(=O)O)c1cccc(C(=O)c2ccccc2)c1 (stereo not drawn) [Ketoprofen, reference compound] |  |  |  |  |  |  |  | permeability coefficient (Pe) [8]: 4.5 ×10⁻⁶ cm/s
16 | CC(C)NCC(O)COc1cccc2ccccc12 (stereo not drawn) [propranolol, reference compound] |  |  |  |  |  |  |  | permeability coefficient (Pe) [8]: 112.8 ×10⁻⁶ cm/s
